Reference: US9018388B2, “Pesticidal compositions and processes related thereto” (Dow AgroSciences LLC, priority 2012, dated 2015)

Legend:
[1] = test system: Corn Earworm (CEW) (Helicoverpa zea); test: Bioassay on corn earworm (CEW), 128-well diet tray assay; type: in vivo; conditions: Helicoverpa zea; Corn earworm, 50 μg/cm^2; read-out: % Mortality CEW 50 μg/cm^2
Procedure, shortened: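 Second-instar Helicoverpa zea larvae (one to five per well) placed on artificial diet treated with 50 μg/cm^2 compound in 90:10 acetone-water, dried, eight wells per compound. Held at 25 °C, 14:10 light-dark, five to seven days; percent mortality averaged over wells.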

[2] = test system: Beet Armyworm (BAW) (Spodoptera exigua); test: Bioassay on beet armyworm (BAW), 128-well diet tray assay; type: in vivo; conditions: Spodoptera exigua; Beet armyworm, 50 μg/cm^2; read-out: % Mortality BAW 50 μg/cm^2
Procedure, shortened: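 Second-instar Spodoptera exigua larvae, one to five per well, on artificial diet treated with 50 μg/cm^2 compound in 90:10 acetone-water and dried, eight wells per compound. Held at 25 °C, 14:10 light-dark for five to seven days; percent mortality averaged over wells.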

[3] = test system: Green Peach Aphid (GPA) (Myzus persicae); test: Bioassay on green peach aphid (GPA), foliar spray on cabbage seedlings; type: in vivo; conditions: 72 h, read-out: % Mortality GPA 200 ppm
Experimental: Bioassays on Green Peach Aphid (“GPA”) (Myzus persicae)
Certain molecules disclosed in this document were tested against GPA using procedures described in the following example. In the reporting of the results, the “GPA Rating Table” was used (See Table Section).
Cabbage seedlings grown in 3-inch pots, with 2-3 small (3-5 cm) true leaves, were used as test substrate. The seedlings were infested with 20-50 GPA (wingless adult and nymph stages) one day prior to chemical application. Four pots with individual seedlings were used for each treatment. Test compounds (2 mg) were dissolved in 2 mL of acetone/methanol (1:1) solvent, forming stock solutions of 1000 ppm test compound. The stock solutions were diluted 5× with 0.025% Tween 20 in H2O to obtain the solution at 200 ppm test compound. A hand-held aspirator-type sprayer was used for spraying a solution to both sides of […] leaves until runoff. Reference plants (solvent check) were sprayed with the diluent only containing 20% by volume of acetone/methanol (1:1) solvent. Treated plants were held in a holding room for three days at approximately 25° C. and ambient relative humidity (RH) prior to grading. Evaluation was conducted by counting the number of live aphids per plant under a microscope. Percent Control was measured by using Abbott's correction formula (W. S. Abbott, “A Method of Computing the Effectiveness of an Insecticide” J. Econ. Entomol. 18 (1925), pp. 265-267) as follows. Corrected%Control=100*(X−Y)/X • where • X=No. of live aphids on solvent check plants and • Y=No. of live aphids on treated plants
The results are indicated in the table entitled “Table 5: Biological Results” (See Table Section).

melting point	Compound	pest or weed control at 50 µg/cm2, 50 µg/cm2 [1] [%]	pest or weed control at 50 µg/cm2, 50 µg/cm2 [2] [%]	pest or weed control at 200 ppm [3] [%]
	Cc1cccc(Cl)c1N1/C(=N/N=C/c2ccc(-c3ncn(-c4ccc(OC(F)(F)F)cc4)n3)cc2)SCC1C (stereo not drawn) [Compound 158C]	50 to 100	50 to 100	0 to 80
	Cc1cccc(Cl)c1-n1c(C)cs/c1=N\N=C\c1ccc(-c2ncn(-c3ccc(OC(F)(F)F)cc3)n2)cc1 [Compound 174C]	50 to 100	50 to 100	0 to 80
	COc1cc(C)c(N2CCCS/C2=N\N=C\c2ccc(-c3ncn(-c4ccc(OC(F)(F)F)cc4)n3)cc2)c(C)c1 [Compound 181C]	50 to 100	50 to 100	0 to 80
	Cc1cccc(C)c1N1CCCS/C1=N\N=C\c1ccc(-c2ncn(-c3ccc(OC(F)(F)F)cc3)n2)cc1 [Compound 182C]	50 to 100	50 to 100	0 to 80
	FC(F)(F)Oc1ccc(-n2cnc(-c3ccc(/C=N/N=C4\SCCCN4c4ccccc4C4CC4)cc3)n2)cc1 [Compound 186C]	50 to 100	50 to 100	0 to 80
	Fc1cccc(Cl)c1N1CCCS/C1=N\N=C\c1ccc(-c2ncn(-c3ccc(OC(F)(F)F)cc3)n2)cc1 [Compound 188C]	50 to 100	50 to 100	0 to 80
	Fc1cccc(F)c1N1CCCS/C1=N\N=C\c1ccc(-c2ncn(-c3ccc(OC(F)(F)F)cc3)n2)cc1 [Compound 189C]	50 to 100	50 to 100	0 to 80
	FC(F)(F)Oc1ccc(-n2cnc(-c3ccc(/C=N/N=C4\SCCCN4c4c(Cl)cccc4C(F)(F)F)cc3)n2)cc1 [Compound 190C]	50 to 100	50 to 100	0 to 80
	COc1ccc(N2CCCS/C2=N\N=C\c2ccc(-c3ncn(-c4ccc(OC(F)(F)F)cc4)n3)cc2)c(C)c1 [Compound 192C]	50 to 100	50 to 100	0 to 80
	CC(C)Cc1ccccc1N1CCCS/C1=N\N=C\c1ccc(-c2ncn(-c3ccc(OC(F)(F)F)cc3)n2)cc1 [Compound 193C]	50 to 100	50 to 100	0 to 80
	FC(F)(F)Oc1ccc(-n2cnc(-c3ccc(/C=N/N=C4\SCCCN4c4ccccc4-c4ccccc4)cc3)n2)cc1 [Compound 194C]	50 to 100	50 to 100	0 to 80
	Cc1ccccc1N1CCCS/C1=N\N=C\c1ccc(-c2ncn(-c3ccc(OC(F)(F)F)cc3)n2)cc1 [Compound 195C]	50 to 100	50 to 100	0 to 80
	COc1ccc(N2CCCS/C2=N\N=C\c2ccc(-c3ncn(-c4ccc(OC(F)(F)F)cc4)n3)cc2)cc1 [Compound 202C]	50 to 100	50 to 100	0 to 80
	Cc1cc(Br)cc(C)c1N1CCCS/C1=N\N=C\c1ccc(-c2ncn(-c3ccc(OC(F)(F)F)cc3)n2)cc1 [Compound 203C]	50 to 100	50 to 100	0 to 80
	COc1ccc(C)cc1N1CCCS/C1=N\N=C\c1ccc(-c2ncn(-c3ccc(OC(F)(F)F)cc3)n2)cc1 [Compound 204C]	50 to 100	50 to 100	0 to 80
	Cc1ncccc1N1CCCS/C1=N\N=C\c1ccc(-c2ncn(-c3ccc(OC(F)(F)F)cc3)n2)cc1 [Compound 205C]	50 to 100	50 to 100	0 to 80
	CCc1cccc(C)c1N1/C(=N/N=C/c2ccc(-c3ncn(-c4ccc(OC(F)(F)F)cc4)n3)cc2)SCCC1C (stereo not drawn) [Compound 213C]	50 to 100	50 to 100	0 to 80
214 to 216 °C	CC(C)c1ccccc1NC(=S)N/N=C/c1ccc(-c2ncn(-c3ccc(OC(F)(F)C(F)(F)F)cc3)n2)cc1 [Compound I-33]			
200 °C (dec.)	CC(C)c1ccccc1NC(=S)N/N=C/c1ccc(-c2ncn(-c3ccc4c(c3)OC(F)(F)O4)n2)cc1 [Compound I-36]			
133 to 135 °C	CC(C)c1ccc(F)cc1NC(=S)NN [Compound I-43]			
163 to 217 °C	CC(C)c1cc(F)ccc1NC(=S)NN [Compound I-47]			
158 to 160 °C	CC(C)c1c(F)cccc1NC(=S)NN [Compound I-51]			
139 to 141 °C	CC(F)(F)c1ccc(-n2cnc(-c3ccc(C=O)cc3)n2)cc1 [Compound I-62]			
